Patent US8574544B1, “Pharmaceutical composition of nanoparticles” (GP Medical, Inc., priority 2005, dated 2013)

How the values were obtained:
[1] = in vivo; cited from earlier work
[2] = test system: diabetic rats; experiment: Hypoglycemic effect in diabetic rats (Example no. 10); type: in vivo, Wistar male rats
Procedure: In the in vivo study, rats were injected with streptozotocin (STZ 75 mg/kg intraperitoneal) in 0.01M citrate buffer (pH 4.3) to induce diabetes. The blood from the rat's tail was analyzed with a commercially available glucometer for blood glucose. The blood glucose level on Wistar male rats at no fasting (n=5) was measured at 107.2±8.1 mg/dL for normal rats while the blood glucose level was at 469.7±34.2 mg/dL for diabetic rats. In the animal study, diabetic rats were fasting for 12 hours and subjected to four different conditions: (a) oral deionized water (DI) administration; (b) oral insulin administration at 30 U/kg; (c) oral insulin-loaded nanoparticles administration at 30 U/kg; and (d) subcutaneous (SC) insulin injection at 5 U/kg as positive control. The blood glucose concentration from rat's tail was measured over the time in the study.
It is illustrative that substantially all insulin from the oral administration route has been decomposed in rat stomach. As anticipated, the glucose decrease for the SC insulin injection route appears in rat blood in the very early time interval and starts to taper off after 3 hours in this exemplary study.
The most important observation of the study comes from the oral administration route with insulin-loaded nanoparticles. […]

[3] = test system: diabetic rats; experiment: Freeze-dried nanoparticles in enteric-coated capsule in diabetic rats (Example no. 19); type: in vivo; conditions: SC injection 5 U/kg
Procedure: In the in vivo study, rats as prepared and conditioned according to Example no. 10 were used in this evaluation. […] The blood glucose concentration from rat's tail was measured over time.
As anticipated, the glucose decrease for the SC insulin injection method is evident in rat blood at a very early time interval starts to taper off after 2 hours, and ends at about 6 hours in this exemplary study. The most important observation of the study comes from the oral administration route with insulin-loaded lyophilized (namely, freeze-dried) nanoparticles. Nanoparticles of this example have an insulin LC at 4.4%, whereas nanoparticles from Example no. […] With the same amount of nanoparticles in both examples, the insulin-feeding ratio of Example no. 19 to Example no. 10 is about 1:3. In other words, the insulin fed to a rat in this study from nanoparticles is about ⅓ of the insulin from nanoparticles fed to rats in Example no. 10.
The blood glucose begins to decrease from the base line at about 3 hours after administration and sustains a lower glucose level for more than 10 hours into study. It implies that the current insulin-loaded nanoparticles may modulate the glucose level in animals in a sustained or prolonged effective mode. […]

[4] = insulin from bovine pancreas (Sigma-Aldrich); cited from earlier work
[5] = test system: brush border membrane bounded enzymes; experiment: Enzyme inhibition study: enzymatic degradation of insulin versus time; type: biochemical; conditions: 5 mg/ml; insulin 1 mg/ml; up to 2 hours
From the text: Brush border membrane bounded enzymes were used to simulate a contacting membrane at the bottom of a donor compartment, wherein the insulin-loaded medium (Krebs-Ringer buffer) in the donor compartment was used as the starting material at time zero. Three elements were used in this enzyme inhibition study to assess the enzymatic degradation of insulin versus time by brush border membrane bounded enzymes.

[6] = cited from earlier work
[7] = 20° C.; cited from earlier work

For “21^A-Gly-30^Ba-L-Arg-30^Bb-L-Arg-human insulin [Insulin glargine]”, which duration of activity [1] is on record?
The duration of activity was “up to 24 hours”.

With “insulin: model insulin from bovine pancreas (Sigma-Aldrich), given orally or by SC injection as controls” as the compound, how does the “time after which glucose decrease starts to taper off” value ([2]; SC injection 5 U/kg) read?
Its value is 3 h.

And the “glucose change as a percentage of base lines” value ([2]; oral 30 U/kg, over 8 hours, n=5)?
The value was “relatively constant”.

What about the “time after which glucose decrease starts to taper off” value [3] of the same compound?
The value was 2 h.

And the “time at which glucose decrease ends” value [3]?
The value was “about 6 hours”.

And the activity [4]?
The activity was at least 27 USP units/mg.

With `O=C(O)CN(CCN(CC(=O)O)CC(=O)O)CCN(CC(=O)O)CC(=O)O` [DTPA, Diethylene triamine pentaacetic acid] as the compound, how does the “protection of insulin activity or viable content against enzymatic degradation” value [5] read?
Its value is “substantially protect or maintain the insulin activity or viable content”.

What does the source list for Drotrecogin alfa (activated)?
time to peak plasma levels ([6]; i.v. dosage guidelines): two; time to complete clearance from plasma after termination of infusion ([6]; i.v. infusion): two

For `OC[C@H]1O[C@H](O[C@H]2O[C@H](CO)[C@@H](O)[C@H](O)[C@H]2O)[C@H](O)[C@@H](O)[C@@H]1O` [Trehalose, α-D-glucopyranosyl-(1→1)-α-D-glucopyranoside], which solubility [7] is on record?
Its solubility is 68.9 g/100 g H2O.
